Test results from patent US9907848B2, “Methods and compositions for treatment of metabolic disorders” (Beth Israel Deaconess Medical Center, Inc., priority 2010, dated 2018).
Entries after “also recorded” stand apart in the source; their conditions may differ.

Columns and labels:
IL-4 and IL-10 = assay: Neutralizing IL-4 and IL-10 prior to αGC treatment, metabolic outcomes after 4 days; type: in vivo, mice; conditions: IL-4 and IL-10 neutralized before αGC injection
From the text: As adipose tissue iNKT cells are skewed towards IL-4 and IL-10 production, we next investigated whether IL-4 and IL-10 were mediators of this protection seen by αGC treatment. We neutralized IL-4 and IL-10 prior to αGC treatment and measured metabolic outcomes after 4 days.

iNKT cells [1] = assay: αGC treatment of obese Jα18 KO mice (no iNKT cells), control; type: in vivo; conditions: 4 days post αGC
Protocol: (§1) The prototypical ligand for iNKT cells is the glycolipid, αGC. We investigated whether αGC treatment could activate the residual iNKT cells in obesity and improve metabolic outcome (FIGS. 16A-16H).
(§2) Wt, Jα18 KO and CD1d KO were weighed weekly and food intake was monitored on HFD. Body fat content was measured by an X-ray emitting DEXA scan, performed after mice were sacrificed. Whole abdominal adipose fat pads were weighed after dissecting out the testes and lymph nodes. After 6 weeks on HFD, fasting blood glucose (OneTouch Ultra) and insulin concentrations (Crystal Chem ELISA) were measured. For glucose tolerance tests, fasted (10 h) mice received 1 g glucose per kg body weight intraperitoneally (i.p); for insulin resistance, the homeostatic model assessment of insulin resistance (HOMA-IR) was used (Matthews et al., Diabetologia 28:412-419, 1985) was used: fasting blood glucose×fasting insulin/22.5. Two samples of 5 mm liver were collected and fixed in formalin overnight, prior to paraffin mounting and preparation of ME or Oil Red 0 stained slides for measurement of fatty liver or adipose prior to αGC (or control) treatment. For H&E and Oil Red O staining, biopsies were viewed using the 20× objective. Degree of fatty liver was measured by Oil Red O staining intensity around 5 portal tract areas per slide.
(§3) Mice were injected i.p. with 2 μg of αGC or vehicle, and mice were sacrificed after 5 hours or 4 days, at the time of metabolic analysis. Single cell suspension of splenocytes, LMNC, and adipose tissue SVF were obtained as before, but with the inclusion of Brefeldin A in all media. Single cell suspensions of splenocytes or liver mononuclear cells (LMC) were stained firstly with cell surface labeling anti-CD3 mAb and αGC-loaded CD1d tetramer. Cells were then fixed, permeabilized, and intracellular cytokine stained for IL-4, IL-10 and IFN-γ using Cytofix/cytoperm (BD Biosciences), according to the manufacturer's instructions.

iNKT cells [2] = assay: αGC treatment of obese wt mice on HFD, metabolic outcome 4 days post-injection; type: in vivo
Protocol: as §1, §2
Adipocyte size and number were measured by osmium and immunohistochemistry. Two samples of 20-30 mg of adipose tissue per mouse were immediately fixed in osmium tetroxide (3% solution in collidine 0.05 M), minced into 1 mm pieces and incubated in the dark at room temperature for 48 hours. Adipose cell size and number were determined by a Beckman Coulter Multisizer III Counter with a 400 μm aperture. Adipose tissue was also fixed in formalin overnight, prior to paraffin mounting and preparation of H&E slid s. Adipocyte number was counted per field of view, in ten fields per sample and related back to the original weight of each fat pad.
as §3

iNKT cells [3] = assay: Effect of αGC on iNKT cells in fat, liver and spleen of obese mice; type: in vivo
Protocol: Single cell suspensions of splenocytes, liver mononuclear cells (LMNCs), and adipose SVF were blocked with anti-CD16/32 mAb and stained for 30 min at 4° C. in the dark with PBS-57-loaded or empty CD1d tetramer-PE (NIH tetramer facility) and CD3 (1:150 dilution, eBiosciences). Macrophages were labeled with phycoerythrin-conjugated antibody to F4/80 (1 in 100) and CD11c (1 in 200) and CD206 (1 in 200) to differentiate M1 from M2 macrophages in the SVF as previously described.
as §3

iNKT [4] = assay: In vitro iNKT cytokine production stimulated by αGC-loaded CD1d+ C1R cells; type: cell-based, mice; conditions: isolated iNKT stimulated with αGC
From the text: (§4) To verify the cytokine profile, iNKT were isolated (>90% purity) and stimulated in vitro with αGC.

iNKT cells [5] = assay: αGC treatment of normal weight mice on SFD; type: in vivo
Protocol: as §1
as §2, with “After 6 weeks on HFD, fasting blood glucose (OneTouch Ultra) and insulin concentrations (Crystal Chem ELISA) were measured.” left out
Mice were injected i.p. with 2 μg of αGC or vehicle, and mice were sacrificed after 5 hours or 4 days, at the time of metabolic analysis. […]

iNKT [6] = assay: iNKT cytokine production in response to αGC in vivo (wt mice)
Protocol: as §4, §3

iNKT [7] = conditions: literature statement; cited from earlier work
iNKT cells [8] = assay: Effect of αGC on iNKT cells in fat, liver and spleen of obese mice; type: in vivo; conditions: after 6 hours

With CCCCCCCCCCCCCCCCCCCCCCCCCC(=O)NC(COC1OC(CO)C(O)C(O)C1O)C(O)C(O)CCCCCCCCCCCCCC (stereo not drawn) [αGC, α-galactosylceramide] the GTT (IL-4 and IL-10) was “prevented improvement”, the fasting glucose (IL-4 and IL-10) was “prevented improvement” and the GTT (iNKT cells [1]) was “not seen; also recorded: did not affect”. The fasting glucose (iNKT cells [1]) was “improvement in fasting glucose was not seen; also recorded: did not affect”, the weight loss (iNKT cells [1]) was “weight loss was not seen” and the “% body fat (DEXA)” value (iNKT cells [2]; 4 days post αGC injection) was “lost a significant amount; also recorded: decreased”. For the same compound, the adipocyte number (iNKT cells [2]; 4 days post αGC injection) was “did not affect cell number; also recorded: did not differ”, the adipocyte size (iNKT cells [2]; 4 days post αGC injection) was “rapid and dramatic reduction in adipocyte size; also recorded: decreased” and the circulating leptin (iNKT cells [2]; 4 days post αGC injection) was “significantly improved; also recorded: decreased”. The “glucose tolerance test (GTT)” value (iNKT cells [2]; 4 days post αGC injection) was “improved GTT, returning it to almost normal”, the “insulin resistance / insulin sensitivity” value (iNKT cells [2]; 4 days post αGC injection) was “significantly improved insulin resistance; also recorded: increased insulin sensitivity” and the “lean mass (DEXA)” value (iNKT cells [2]; 4 days post αGC injection) was “did not differ”. For the same compound, the “serum IL-4” value (iNKT cells [2]; 4 days post αGC injection) was “non-significant increase”, the “serum IL-6” value (iNKT cells [2]; 4 days post αGC injection) was “decreased serum IL-6” and the “serum TNFα” value (iNKT cells [2]; 4 days post αGC injection) was “increased serum TNF-a”. The “serum triglycerides (circulating TGL)” value (iNKT cells [2]; 4 days post αGC injection) was “significantly improved; also recorded: decreased circulating TGL”, the “fat deposition in the liver (Oil Red O)” value (iNKT cells [2]; 4 days post αGC injection, vs PBS) was “fat droplets were smaller and less frequent” and the fasting blood glucose (iNKT cells [2]; 4 days post αGC injection, vs PBS control) was “marked reduction of fasting blood glucose”. For the same compound, the overall weight (iNKT cells [2]; one i.p. injection of αGC, continued HFD for 4 days, vs PBS/vehicle) was “lost a significant amount of overall weight”, the “IFNγ production by adipose tissue iNKT cells” value (iNKT cells [3]; 4-5 hours, vs spleen and liver) was “little IFNγ” and the “IL-4 and IL-10 production by adipose tissue iNKT cells” value (iNKT cells [3]; 4-5 hours, vs spleen and liver) was “more IL-4 and IL-10”. For the same compound, the “expansion of iNKT cells in fat (adipose tissue)” value (iNKT cells [3]; 4 days post-injection) was “expansion was greater in fat; also recorded: dramatic expansion”, the “cytokine production by adipose tissue iNKT cells” value (iNKT cells [3]; day 4 post-injection) was “still producing cytokines at day 4; also recorded: produced IL-4, IL-10, and IFN-γ at day 4; also recorded: remained actively producing cytokines” and the “expansion of iNKT cells in spleen and liver” value (iNKT cells [3]; day 4 post-injection) was “expansion of iNKT cells by day 4”. For the same compound, the “cytokine production by liver and spleen iNKT cells” value (iNKT cells [3]; within 4-5 hours) was “produced both IFNγ and IL-4”, the “IL-10 production by adipose iNKT in vitro” value (iNKT [4]; vs liver or spleen) was “significantly more IL-10 per cell” and the “IFNγ production by adipose iNKT in vitro” value (iNKT [4]; vs splenic or hepatic iNKT) was “low levels of IFNγ; also recorded: significantly less IFNγ”. The GTT (iNKT cells [5]) was “did not affect”, the fasting glucose (iNKT cells [5]) was “did not affect” and the “IL-4 production by adipose iNKT in vivo” value (iNKT [6]; following injection of αGC) was “slightly less IL-4”. For the same compound, the “IL-10 production by adipose iNKT in vivo” value (iNKT [6]; following injection of αGC, vs liver and spleen) was “significantly more IL-10”, the “IFNγ production by adipose iNKT in vivo” value (iNKT [6]; following injection of αGC, vs liver or spleen) was “did not produce IFNγ” and the “IFNγ production by spleen and liver iNKT in vivo” value (iNKT [6]; response to αGC) was “copious IFNγ”. For the same compound, the “IL-4 production by spleen and liver iNKT in vivo” value (iNKT [6]; response to αGC) was “less IL-4”, the “IL-10 production by spleen and liver iNKT in vivo” value (iNKT [6]; response to αGC) was “very low levels of IL-10” and the “activation of iNKT” value (iNKT [7]) was “activate iNKT”. The “invariant TCR expression on iNKT cells” value (iNKT cells [8]) was “down-regulation of the invariant TCR after 6 hours”.
